SMILES strings stand for the structures.

The subject of the assay is Glutathione (GSH) in BRx68 cells. The experiment in a line: Glutathione measurement. In kind it is cell-based, human. The settings on record: 300 μmol/L NAC. How it is done:
Glutathione measurement. A total of 1×10^6 BRx68 cells were cultured with or without 300 μmol/L NAC for 6 or 13 days. At the end of incubation periods, cells were washed in ice cold PBS, lysed in 5% 5-sulfo-salicylic acid dehydrate by vortexing and repeating cycles of freeze-thaw, then centrifuged at 14,000 rpm for 10 minutes and supernatant was transferred to clean tubes. Glutathione (GSH) was measured using a GSH Colorimetric Detection Kit (Invitrogen) following the manufacturer's instructions.

For `CC(=O)N[C@@H](CS)C(=O)O` [NAC, N-acetyl-L-cysteine], the “total GSH level in NAC treated cells vs untreated control cells” value by setting is: (day 6) 44.42±5.165; (day 13) “not at day 13”.
